ChEMBL document CHEMBL5126633, “Developing HDAC4-Selective Protein Degraders To Investigate the Role of HDAC4 in Huntington's Disease Pathology” (J Med Chem, 2022)
Converted amounts (≈) assume the structure as drawn. The source made the active and inactive calls. The rule behind the calls is not given here.

Columns and labels:
Histone deacetylase 4 = Histone deacetylase 4 (Homo sapiens, UniProt P56524); assay: Inhibition of recombinant HDAC4 (unknown origin) using Boc-Lys(TFA)-AMC as substrate by fluorescence based plate reader assay
Histone deacetylase 5 = Histone deacetylase 5 (Homo sapiens, UniProt Q9UQL6); assay: Inhibition of recombinant HDAC5 (unknown origin) using Boc-Lys(TFA)-AMC as substrate by fluorescence based plate reader assay
Histone deacetylase 7 = target: T1, Histone deacetylase 7 (Homo sapiens, UniProt Q8WUI4); assay: Inhibition of recombinant HDAC7 (unknown origin) using Boc-Lys(TFA)-AMC as substrate by fluorescence based plate reader assay
T1 sequence (Q8WUI4 whole entry): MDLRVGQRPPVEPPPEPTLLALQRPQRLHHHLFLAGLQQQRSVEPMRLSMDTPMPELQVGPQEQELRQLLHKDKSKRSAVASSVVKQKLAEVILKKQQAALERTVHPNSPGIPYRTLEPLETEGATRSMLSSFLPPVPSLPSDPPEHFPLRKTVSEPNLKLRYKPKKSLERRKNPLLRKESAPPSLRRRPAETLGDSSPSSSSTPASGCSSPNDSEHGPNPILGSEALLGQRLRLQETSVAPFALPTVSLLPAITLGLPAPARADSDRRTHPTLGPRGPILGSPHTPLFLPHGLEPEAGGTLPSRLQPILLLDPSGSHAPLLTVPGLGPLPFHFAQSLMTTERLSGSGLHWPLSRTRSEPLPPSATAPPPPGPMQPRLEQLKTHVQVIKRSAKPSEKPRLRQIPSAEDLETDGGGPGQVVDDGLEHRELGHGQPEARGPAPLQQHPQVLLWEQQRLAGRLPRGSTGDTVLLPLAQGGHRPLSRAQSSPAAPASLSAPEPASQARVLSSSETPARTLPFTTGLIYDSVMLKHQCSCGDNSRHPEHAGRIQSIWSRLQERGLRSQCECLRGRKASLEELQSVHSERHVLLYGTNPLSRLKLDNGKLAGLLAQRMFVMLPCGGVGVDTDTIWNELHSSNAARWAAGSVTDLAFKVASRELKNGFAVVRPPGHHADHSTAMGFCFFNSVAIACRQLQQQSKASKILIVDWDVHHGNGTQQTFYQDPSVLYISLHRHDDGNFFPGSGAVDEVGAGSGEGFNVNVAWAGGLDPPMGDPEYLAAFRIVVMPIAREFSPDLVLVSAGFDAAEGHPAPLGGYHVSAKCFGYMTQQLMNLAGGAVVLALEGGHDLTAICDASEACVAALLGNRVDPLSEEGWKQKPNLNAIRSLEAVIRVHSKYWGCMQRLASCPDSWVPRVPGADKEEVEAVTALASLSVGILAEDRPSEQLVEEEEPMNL

[1] = Inhibition of class 2a HDAC in human Jurkat E6.1 cells using Boc-Lys(TFA)-AMC as substrate incubated for 24 hrs by plate reader assay; format: cell-based; conditions: Jurkat E6.1, 24 h
[2] = target: Class 1 histone deacetylase (Homo sapiens, UniProt Q13547+O15379+Q92769+Q9BY41); assay: Inhibition of class 1 HDAC in human Jurkat E6.1 cells using Boc-Lys(Ac)-AMC as substrate incubated for 24 hrs by plate reader assay; format: cell-based
[3] = Kinetic aqueous solubility of the compound in PBS buffer at pH 7.4 incubated for 2 hrs under shaking condition by LC-UV analysis; format: physicochemical; conditions: read-out: Kinetic_solubility
[4] = target: T2, von Hippel-Lindau disease tumor suppressor/Histone deacetylase 4 (Homo sapiens, UniProt P40337+P56524); assay: Protac activity at VHL/HDAC4 in human Jurkat E6.1 cells assessed as induction of HDAC4 degradation incubated for 24 hrs by ELISA-based MSD electrochemiluminescence assay; format: cell-based
[5] = target: T3, von Hippel-Lindau disease tumor suppressor/Histone deacetylase 4 (Homo sapiens) (UniProt P56524+P40337); assay: Protac activity at VHL/HDAC4 in human Jurkat E6.1 cells assessed as induction of HDAC4 degradation by measuring maximum degradation at 10 uM incubated for 24 hrs by ELISA-based MSD electrochemiluminescence assay relative to control; format: cell-based
Histone deacetylase 9 = Histone deacetylase 9 (Homo sapiens, UniProt Q9UKV0)
[6] = target: T2, von Hippel-Lindau disease tumor suppressor/Histone deacetylase 4; assay: Protac activity at VHL/HDAC4 in human Jurkat E6.1 cells assessed as induction of HDAC4 degradation incubated for 24 hrs by immunoblotting analysis; format: cell-based
Homo sapiens [7] = organism: Homo sapiens; assay: Selectivity ratio of IC50 for inhibition of HDAC4 (unknown origin) to IC50 for inhibition of HDAC5 (unknown origin)
Homo sapiens [8] = organism: Homo sapiens; assay: Selectivity ratio of IC50 for inhibition of HDAC4 (unknown origin) to IC50 for inhibition of HDAC7 (unknown origin)
Homo sapiens [9] = organism: Homo sapiens; assay: Selectivity ratio of IC50 for inhibition of HDAC4 (unknown origin) to IC50 for inhibition of HDAC9 (unknown origin)
[10] = target: T3, von Hippel-Lindau disease tumor suppressor/Histone deacetylase 4 (Homo sapiens); assay: Protac activity at VHL/HDAC4 in human Jurkat E6.1 cells assessed as induction of HDAC4 degradation at 1 uM incubated for 6 hrs by immunoblotting analysis; format: cell-based
[11] = target: T2, von Hippel-Lindau disease tumor suppressor/Histone deacetylase 4; assay: Protac activity at VHL/HDAC4 in human Jurkat E6.1 cells assessed as induction of HDAC4 degradation incubated for 24 hrs in absence of elacridar by Western blot analysis; format: cell-based
[12] = target: T2, von Hippel-Lindau disease tumor suppressor/Histone deacetylase 4; assay: Protac activity at VHL/HDAC4 in human Jurkat E6.1 cells assessed as induction of HDAC4 degradation preincubated with elacridar for 1 hr followed by compound addition and measured after 24 hrs by Western blot analysis; format: cell-based
Vhl/Hdac4 [13] = target: T4, Vhl/Hdac4 (Mus musculus, UniProt P40338+Q6NZM9); assay: Protac activity at VHL/HDAC4 in Q175 KI mouse cortical neuron assessed as induction of HDAC4 degradation incubated for 4 to 72 hrs in absence of elacridar by MSD assay; format: cell-based
[14] = Selectivity ratio of DC50 for protac activity at VHL/HDAC4 in mouse Neuro2a cells to DC50 for protac activity at VHL/HDAC4 in human Jurkat E6.1 cells; format: cell-based
[15] = Apparent permeability in MDCK cells; format: ADME, cell-based, Canis lupus familiaris; conditions: dog
[16] = Apparent permeability in MDCK-MDR1 cells; format: ADME, cell-based, Canis lupus familiaris; conditions: dog
[17] = Apparent permeability in MDCK-BCRP cells; format: ADME, cell-based, Canis lupus familiaris; conditions: dog
[18] = Efflux ratio of apparent permeability basolateral to apical over apical to basolateral side in MDCK cells; format: ADME, cell-based, Canis lupus familiaris; conditions: dog
[19] = Efflux ratio of apparent permeability basolateral to apical over apical to basolateral side in MDCK-MDR1 cells; format: ADME, cell-based, Canis lupus familiaris; conditions: dog
[20] = Efflux ratio of apparent permeability basolateral to apical over apical to basolateral side in MDCK-BCRP cells; format: ADME, cell-based, Canis lupus familiaris; conditions: dog
Vhl/Hdac4 [21] = target: T4, Vhl/Hdac4; assay: Protac activity at VHL/HDAC4 in mouse Neuro2a cells assessed as induction of HDAC4 degradation incubated for 24 hrs in absence of elacridar by MSD assay
Vhl/Hdac4 [22] = target: T4, Vhl/Hdac4; assay: Protac activity at VHL/HDAC4 in mouse Neuro2a cells assessed as induction of HDAC4 degradation preincubated with elacridar for 1 hr followed by compound addition and measured after 24 hrs by MSD assay

Sequence of Histone deacetylase 9 (Q9UKV0 whole entry): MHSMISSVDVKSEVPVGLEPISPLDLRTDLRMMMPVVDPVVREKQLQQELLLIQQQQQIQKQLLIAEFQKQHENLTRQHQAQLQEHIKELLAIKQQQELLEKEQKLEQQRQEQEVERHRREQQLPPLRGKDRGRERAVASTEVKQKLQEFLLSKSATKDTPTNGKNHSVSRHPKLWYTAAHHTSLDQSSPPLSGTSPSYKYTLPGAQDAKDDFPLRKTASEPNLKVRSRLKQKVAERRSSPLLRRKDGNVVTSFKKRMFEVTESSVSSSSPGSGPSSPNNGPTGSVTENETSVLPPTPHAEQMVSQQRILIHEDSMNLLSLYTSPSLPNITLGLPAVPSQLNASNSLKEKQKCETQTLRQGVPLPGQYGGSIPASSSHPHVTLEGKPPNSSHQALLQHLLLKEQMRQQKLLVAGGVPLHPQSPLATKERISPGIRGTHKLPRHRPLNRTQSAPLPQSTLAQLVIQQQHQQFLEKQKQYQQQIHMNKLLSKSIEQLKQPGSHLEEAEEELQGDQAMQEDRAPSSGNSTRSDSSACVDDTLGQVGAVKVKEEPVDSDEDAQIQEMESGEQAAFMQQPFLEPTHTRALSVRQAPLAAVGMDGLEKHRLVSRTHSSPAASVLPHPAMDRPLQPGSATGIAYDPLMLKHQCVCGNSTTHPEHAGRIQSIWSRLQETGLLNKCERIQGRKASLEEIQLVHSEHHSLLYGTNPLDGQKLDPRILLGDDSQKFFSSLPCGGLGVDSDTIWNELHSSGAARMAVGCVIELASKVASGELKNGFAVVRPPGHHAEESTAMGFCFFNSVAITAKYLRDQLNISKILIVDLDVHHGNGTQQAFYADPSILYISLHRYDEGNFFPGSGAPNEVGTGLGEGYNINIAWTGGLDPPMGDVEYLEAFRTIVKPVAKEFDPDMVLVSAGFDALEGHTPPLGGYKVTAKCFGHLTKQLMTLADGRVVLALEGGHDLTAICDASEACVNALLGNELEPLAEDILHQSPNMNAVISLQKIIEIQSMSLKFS
T3 sequence (P40337 whole entry, looked up): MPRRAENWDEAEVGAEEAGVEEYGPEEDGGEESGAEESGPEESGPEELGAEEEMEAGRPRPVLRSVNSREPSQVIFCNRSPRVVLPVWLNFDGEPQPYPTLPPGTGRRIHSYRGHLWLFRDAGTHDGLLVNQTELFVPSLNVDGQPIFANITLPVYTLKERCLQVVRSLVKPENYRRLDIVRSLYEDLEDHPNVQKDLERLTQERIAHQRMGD
T3 sequence (P56524 whole entry, looked up): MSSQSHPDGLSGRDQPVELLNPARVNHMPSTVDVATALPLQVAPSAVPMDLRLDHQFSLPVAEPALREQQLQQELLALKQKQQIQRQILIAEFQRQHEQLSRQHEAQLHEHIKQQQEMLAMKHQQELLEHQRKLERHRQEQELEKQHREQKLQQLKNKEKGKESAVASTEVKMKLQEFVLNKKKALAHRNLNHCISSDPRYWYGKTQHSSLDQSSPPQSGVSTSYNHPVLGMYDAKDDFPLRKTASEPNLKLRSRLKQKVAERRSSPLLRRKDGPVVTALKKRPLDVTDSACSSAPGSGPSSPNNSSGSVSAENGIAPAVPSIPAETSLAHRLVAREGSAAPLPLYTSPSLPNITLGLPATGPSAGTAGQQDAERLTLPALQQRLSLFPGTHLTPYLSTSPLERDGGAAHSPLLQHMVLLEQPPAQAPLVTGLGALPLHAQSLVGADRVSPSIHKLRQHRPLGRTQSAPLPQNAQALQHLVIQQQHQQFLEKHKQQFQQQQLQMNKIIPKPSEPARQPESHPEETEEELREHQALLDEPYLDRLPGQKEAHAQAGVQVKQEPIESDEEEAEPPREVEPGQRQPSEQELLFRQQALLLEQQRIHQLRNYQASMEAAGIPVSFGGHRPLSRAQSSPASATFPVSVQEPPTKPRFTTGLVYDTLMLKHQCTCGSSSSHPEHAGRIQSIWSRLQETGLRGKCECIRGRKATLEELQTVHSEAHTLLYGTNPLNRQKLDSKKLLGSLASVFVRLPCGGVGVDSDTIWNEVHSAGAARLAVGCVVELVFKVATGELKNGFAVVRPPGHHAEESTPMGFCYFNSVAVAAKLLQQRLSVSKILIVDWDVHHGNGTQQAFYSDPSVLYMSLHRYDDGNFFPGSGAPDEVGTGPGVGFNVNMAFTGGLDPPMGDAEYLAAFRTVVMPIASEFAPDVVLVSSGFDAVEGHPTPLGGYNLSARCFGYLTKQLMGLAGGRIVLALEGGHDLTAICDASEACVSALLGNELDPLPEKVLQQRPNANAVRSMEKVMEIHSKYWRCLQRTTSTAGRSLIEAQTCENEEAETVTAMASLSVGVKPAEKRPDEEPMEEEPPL
Sequence of Histone deacetylase 5 (Q9UQL6 whole entry): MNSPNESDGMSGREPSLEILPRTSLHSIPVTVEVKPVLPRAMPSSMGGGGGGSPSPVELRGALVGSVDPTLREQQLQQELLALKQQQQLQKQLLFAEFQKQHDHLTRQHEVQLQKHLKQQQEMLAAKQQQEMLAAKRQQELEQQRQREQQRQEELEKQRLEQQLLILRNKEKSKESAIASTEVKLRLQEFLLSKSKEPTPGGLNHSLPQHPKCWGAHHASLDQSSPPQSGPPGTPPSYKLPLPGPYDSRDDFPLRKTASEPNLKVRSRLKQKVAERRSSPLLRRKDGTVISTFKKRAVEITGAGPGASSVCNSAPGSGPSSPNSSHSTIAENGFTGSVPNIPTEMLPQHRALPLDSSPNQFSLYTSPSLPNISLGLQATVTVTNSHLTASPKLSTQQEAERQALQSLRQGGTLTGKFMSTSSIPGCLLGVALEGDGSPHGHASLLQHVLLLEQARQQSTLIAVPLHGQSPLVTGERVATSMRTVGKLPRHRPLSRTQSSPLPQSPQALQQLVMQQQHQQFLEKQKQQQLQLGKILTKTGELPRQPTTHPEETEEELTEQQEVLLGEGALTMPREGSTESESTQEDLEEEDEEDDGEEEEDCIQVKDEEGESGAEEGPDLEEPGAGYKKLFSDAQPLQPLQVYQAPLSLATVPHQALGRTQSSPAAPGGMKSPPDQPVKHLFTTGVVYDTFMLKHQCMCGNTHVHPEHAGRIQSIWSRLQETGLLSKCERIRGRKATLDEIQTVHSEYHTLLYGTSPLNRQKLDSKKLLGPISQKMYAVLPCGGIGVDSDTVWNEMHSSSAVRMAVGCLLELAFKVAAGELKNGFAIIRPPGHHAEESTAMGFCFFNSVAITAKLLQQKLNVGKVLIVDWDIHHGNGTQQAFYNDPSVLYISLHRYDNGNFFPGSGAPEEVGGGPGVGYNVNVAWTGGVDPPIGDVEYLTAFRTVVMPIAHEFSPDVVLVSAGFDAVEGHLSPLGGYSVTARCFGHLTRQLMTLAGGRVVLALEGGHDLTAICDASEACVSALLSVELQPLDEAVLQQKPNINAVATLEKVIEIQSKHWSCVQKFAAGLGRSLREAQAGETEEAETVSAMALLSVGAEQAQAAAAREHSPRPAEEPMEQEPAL
T4 sequence (Q6NZM9 whole entry): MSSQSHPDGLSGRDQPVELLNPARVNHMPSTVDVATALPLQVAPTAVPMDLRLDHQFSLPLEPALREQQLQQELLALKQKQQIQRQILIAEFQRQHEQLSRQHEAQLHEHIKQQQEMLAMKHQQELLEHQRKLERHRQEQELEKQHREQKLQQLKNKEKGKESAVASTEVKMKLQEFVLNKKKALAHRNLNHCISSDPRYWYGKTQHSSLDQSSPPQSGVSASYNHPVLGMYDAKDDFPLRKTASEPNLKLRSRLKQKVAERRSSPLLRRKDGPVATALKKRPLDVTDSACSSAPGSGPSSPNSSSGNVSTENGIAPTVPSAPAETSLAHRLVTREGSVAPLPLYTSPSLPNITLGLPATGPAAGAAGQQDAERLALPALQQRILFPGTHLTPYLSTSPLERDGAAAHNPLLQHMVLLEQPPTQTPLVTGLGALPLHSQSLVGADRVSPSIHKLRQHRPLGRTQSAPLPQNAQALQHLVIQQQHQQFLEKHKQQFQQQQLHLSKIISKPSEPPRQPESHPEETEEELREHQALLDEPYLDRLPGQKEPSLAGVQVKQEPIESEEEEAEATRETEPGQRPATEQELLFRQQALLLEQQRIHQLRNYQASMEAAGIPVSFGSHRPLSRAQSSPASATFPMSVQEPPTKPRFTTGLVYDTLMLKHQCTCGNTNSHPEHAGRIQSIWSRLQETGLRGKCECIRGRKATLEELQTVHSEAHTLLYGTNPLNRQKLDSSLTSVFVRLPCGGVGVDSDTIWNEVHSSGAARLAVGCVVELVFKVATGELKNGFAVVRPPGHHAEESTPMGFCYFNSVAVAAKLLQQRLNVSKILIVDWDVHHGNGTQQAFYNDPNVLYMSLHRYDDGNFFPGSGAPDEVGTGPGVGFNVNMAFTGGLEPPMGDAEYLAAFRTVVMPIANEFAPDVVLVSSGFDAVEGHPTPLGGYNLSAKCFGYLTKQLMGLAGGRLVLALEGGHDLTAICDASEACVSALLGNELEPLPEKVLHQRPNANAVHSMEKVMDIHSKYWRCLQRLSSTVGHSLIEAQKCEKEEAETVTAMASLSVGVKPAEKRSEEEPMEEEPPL
T4 sequence (P40338 whole entry): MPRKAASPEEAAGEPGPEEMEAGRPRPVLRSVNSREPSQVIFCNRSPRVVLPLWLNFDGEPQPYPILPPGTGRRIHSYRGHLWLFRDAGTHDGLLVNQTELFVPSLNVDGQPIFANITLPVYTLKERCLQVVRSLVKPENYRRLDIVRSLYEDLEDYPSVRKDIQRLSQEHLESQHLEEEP
T2 sequence (P56524 whole entry): as the sequence (P56524 whole entry, looked up) above
T2 sequence (P40337 whole entry): as the sequence (P40337 whole entry, looked up) above
Sequence of Histone deacetylase 4 (P56524 whole entry): as the sequence (P56524 whole entry, looked up) above

| SMILES | IC50 (Histone deacetylase 4) [nM] | IC50 (Histone deacetylase 5) [nM] | IC50 (Histone deacetylase 7) [nM] | IC50 [1] [nM] | IC50 [2] [µM] | solubility kinetic at 2 h [3] [µM] | EC50 [4] [nM] | Emax [5] [%] | IC50 (Histone deacetylase 9) [nM] | other results |
| --- | --- | --- | --- | --- | --- | --- | --- | --- | --- | --- |
| Cc1ncsc1-c1ccc(CNC(=O)[C@@H]2C[C@@H](O)CN2C(=O)[C@@H](NC(=O)COCCOCCOCCOCC(F)(F)c2cnc(-c3ccc(C(C(=O)NO)c4ccccc4F)cc3)nc2)C(C)(C)C)cc1 (some centres undefined) | 560 | 310 | 210 | 160 | > 5 | 5 (≈ 5.03 µg/mL) | 48 | 82 | 340 | – |
| Cc1ncsc1-c1ccc(CNC(=O)[C@@H]2C[C@@H](O)CN2C(=O)[C@@H](NC(=O)COCCOCCOCC(F)(F)c2cnc(-c3ccc(C(C(=O)NO)c4ccccc4F)cc3)nc2)C(C)(C)C)cc1 (mixture of isomers) | 410 | 230 | 210 | 150 | > 5 | 5.2 | 28 | 77 | 290 | – |
| Cc1ncsc1-c1ccc(CNC(=O)[C@@H]2C[C@@H](O)CN2C(=O)[C@@H](NC(=O)COCCOCCOCCOCCOCC(F)(F)c2cnc(-c3ccc(C(C(=O)NO)c4ccccc4F)cc3)nc2)C(C)(C)C)cc1 (some centres undefined) | 1100 | 260 | 250 | 120 | > 5 | 4.8 (≈ 5.04 µg/mL) | 37 | 83 | 420 | EC50 [6]: 11 nM; Ratio IC50 (Homo sapiens [7]): 3; Ratio IC50 (Homo sapiens [8]): 3; Ratio IC50 (Homo sapiens [9]): 3; Activity [10]: Active |
| Cc1ncsc1-c1ccc(CNC(=O)[C@@H]2C[C@H](O)CN2C(=O)[C@@H](NC(=O)COCCOCCOCCOCCOCC(F)(F)c2cnc(-c3ccc(C(C(=O)NO)c4ccccc4F)cc3)nc2)C(C)(C)C)cc1 (some centres undefined) | 230 | – | – | 130 | > 5 | 4.8 (≈ 5.04 µg/mL) | > 10000 | 20 | – | – |
| CCCN(CCCCOCCOCCOCCOCCOCC(=O)N[C@@H](C(=O)N1C[C@@H](O)C[C@@H]1C(=O)NCc1ccc(-c2scnc2C)cc1)C(C)(C)C)C[C@@H](C)NC(=O)c1ccc(-c2noc(C(F)(F)F)n2)cc1 | 150 | – | – | 180 | > 5 | – | > 10000 | 50 | – | – |
| CCCN(CCC)C[C@@H](C)NC(=O)c1ccc(-c2noc(C(F)(F)F)n2)cc1 | – | – | – | – | – | 145 (≈ 57.8 µg/mL) | – | – | – | – |
| CCCN(CCCCOCCOCCOCCOCC(=O)N[C@H](C(=O)N1C[C@H](O)C[C@H]1C(=O)NCc1ccc(-c2scnc2C)cc1)C(C)(C)C)C[C@@H](C)NC(=O)c1ccc(-c2noc(C(F)(F)F)n2)cc1 | 100 | 250 | 230 | 2 | 2.8 | 132 (≈ 136 µg/mL) | 4 | 85 | 220 | – |
| CCCN(CCCCOCCOCCOCCOCCOCC(=O)N[C@H](C(=O)N1C[C@H](O)C[C@H]1C(=O)NCc1ccc(-c2scnc2C)cc1)C(C)(C)C)C[C@@H](C)NC(=O)c1ccc(-c2noc(C(F)(F)F)n2)cc1 | 92 | 150 | 150 | 6 | > 5 | 144 (≈ 155 µg/mL) | 4 | 78 | 94 | EC50 [6]: 2 nM; EC50 [11]: 1.7 nM; EC50 [12]: 1.6 nM; EC50 (Vhl/Hdac4 [13]): 1.1 nM; Ratio EC50 [14]: 20; Papp [15]: 21 nm/s; Papp [16]: 26 nm/s; Papp [17]: 14 nm/s; Ratio [18]: 13; Ratio [19]: 7; Ratio [20]: 5; EC50 (Vhl/Hdac4 [21]): 81 nM; EC50 (Vhl/Hdac4 [22]): 2.3 nM |
| CCCN(CCCCOCCOCCOCC(=O)N[C@H](C(=O)N1C[C@H](O)C[C@H]1C(=O)NCc1ccc(-c2scnc2C)cc1)C(C)(C)C)C[C@@H](C)NC(=O)c1ccc(-c2noc(C(F)(F)F)n2)cc1 | 90 | 140 | 220 | 33 | 4.3 | 100 (≈ 98.7 µg/mL) | 3 | 72 | 130 | – |
